Patent US20240002374A1, “5-MEMBERED HETEROARYLAMINOSULFONAMIDES FOR TREATING CONDITIONS MEDIATED BY DEFICIENT CFTR ACTIVITY” (Genzyme Corporation, priority 2019, published 2024)

biological target: T1, CFTR (primary human bronchial epithelial cells from a ΔF508 homozygous CF donor, CF-HBE cells) (Homo sapiens, UniProt P13569, DEL508-508); test: TECC24 recording of CFTR-mediated transepithelial chloride transport (TECC24 AUC fold over DMSO @ 3 μM); type: cell-based; conditions: 3 uM test agent; CF-HBE cells (ΔF508 homozygous) incubated 48 h; ratio of test agent AUC of forskolin-stimulated IEQ to vehicle (DMSO) AUC
T1 construct: Primary human bronchial epithelial cells from a ΔF508 homozygous CF donor; host or cells: primary human bronchial epithelial cells (CF-HBE) from a ΔF508 homozygous CF donor
Method: Example 510: TECC24 AUC Fold Over DMSO @ 3 μM
The effects of a test agent on CFTR-mediated transepithelial chloride transport was measured using TECC24 recording analysis. Test agents were solubilized in DMSO. Solubilized test agents were mixed with incubation medium containing DMEM/F12, Ultroser G (2%; Crescent Chemical, catalog #67042), Hyclone Fetal Clone H (2%; GE Healthcare, catalog #SH30066.02), bovine brain extract (0.25%; Lonza, catalog #CC-4098), insulin (2.5 μg/mL), IL-13 (10 ng/mL), hydrocortisone (20 nM), transferrin (2.5 μg/mL), triiodothyronine (500 nM), ethanolamine (250 nM), epinephrine (1.5 μM), phosphoethanolamine (250 nM), and retinoic acid (10 nM). Primary human bronchial epithelial cells from a ΔF508 homozygous CF donor (CF-HBE cells; from University of North Carolina Cystic Fibrosis Tissue Procurement Center), grown on Transwell HTS 24-well cell culture inserts (Costar, catalog #3378), were exposed to test agents or controls dissolved in incubation medium. The CF-HBE cells were cultured at 36.5° C. for 48 h before TECC24 recordings were performed in the presence or absence of test agent, a positive control or vehicle (DMSO).
Following incubation, the transwell cell culture inserts containing the test agent or control-treated CF-HBE cells were loaded onto a TECC24 apparatus (TECC v7 or MTECC v2; EP Design) to record the transepithelial voltage (VT) and resistance (TEER) using 4 AgCl electrodes per well configured in current-clamp mode. The apical and basolateral bath solutions both contained (in mM) 140 NaCl, 5 KCl, 2 CaCl2), 1 MgCl2, 10 Hepes, and 10 glucose (adjusted to pH 7.4 with NaOH) […]. To inhibit basal Na+ absorption, the ENaC inhibitor benzamil (10 μM) was added to the bath. Then, the adenylate cyclase activator, forskolin (10 μM), was added to the bath to activate CFTR. The forskolin-stimulated Cl− transport was halted by addition of bumetanide (20 μM), an inhibitor of the basolateral chloride co-transporter NKCC1, to the bath to confirm that the detected signal was chloride dependent. VT and TEER recordings were digitally acquired at routine intervals using TECC or MTECC software (EP Design). VT and TEER were transformed into equivalent transepithelial Cl− current (IEQ), and the Area Under the Curve (AUC) of the IEQ time course between forskolin and bumetanide addition is generated using Excel (Microsoft). Efficacy is expressed as the ratio of the test agent AUC divided by vehicle AUC. EC50s based on AUC are generated using the non-linear regression log(agonist) vs. response function in Prism software (GraphPad) with Hill Slope fixed=1.
If a test agent increased the AUC of the forskolin-stimulated IEQ relative to vehicle in CF-HBE cells, and this increase was inhibited by bumetanide, then the test agent was considered a CFTR corrector.

T1 sequence (P13569 with tags, fused parts or gaps DEL508-508): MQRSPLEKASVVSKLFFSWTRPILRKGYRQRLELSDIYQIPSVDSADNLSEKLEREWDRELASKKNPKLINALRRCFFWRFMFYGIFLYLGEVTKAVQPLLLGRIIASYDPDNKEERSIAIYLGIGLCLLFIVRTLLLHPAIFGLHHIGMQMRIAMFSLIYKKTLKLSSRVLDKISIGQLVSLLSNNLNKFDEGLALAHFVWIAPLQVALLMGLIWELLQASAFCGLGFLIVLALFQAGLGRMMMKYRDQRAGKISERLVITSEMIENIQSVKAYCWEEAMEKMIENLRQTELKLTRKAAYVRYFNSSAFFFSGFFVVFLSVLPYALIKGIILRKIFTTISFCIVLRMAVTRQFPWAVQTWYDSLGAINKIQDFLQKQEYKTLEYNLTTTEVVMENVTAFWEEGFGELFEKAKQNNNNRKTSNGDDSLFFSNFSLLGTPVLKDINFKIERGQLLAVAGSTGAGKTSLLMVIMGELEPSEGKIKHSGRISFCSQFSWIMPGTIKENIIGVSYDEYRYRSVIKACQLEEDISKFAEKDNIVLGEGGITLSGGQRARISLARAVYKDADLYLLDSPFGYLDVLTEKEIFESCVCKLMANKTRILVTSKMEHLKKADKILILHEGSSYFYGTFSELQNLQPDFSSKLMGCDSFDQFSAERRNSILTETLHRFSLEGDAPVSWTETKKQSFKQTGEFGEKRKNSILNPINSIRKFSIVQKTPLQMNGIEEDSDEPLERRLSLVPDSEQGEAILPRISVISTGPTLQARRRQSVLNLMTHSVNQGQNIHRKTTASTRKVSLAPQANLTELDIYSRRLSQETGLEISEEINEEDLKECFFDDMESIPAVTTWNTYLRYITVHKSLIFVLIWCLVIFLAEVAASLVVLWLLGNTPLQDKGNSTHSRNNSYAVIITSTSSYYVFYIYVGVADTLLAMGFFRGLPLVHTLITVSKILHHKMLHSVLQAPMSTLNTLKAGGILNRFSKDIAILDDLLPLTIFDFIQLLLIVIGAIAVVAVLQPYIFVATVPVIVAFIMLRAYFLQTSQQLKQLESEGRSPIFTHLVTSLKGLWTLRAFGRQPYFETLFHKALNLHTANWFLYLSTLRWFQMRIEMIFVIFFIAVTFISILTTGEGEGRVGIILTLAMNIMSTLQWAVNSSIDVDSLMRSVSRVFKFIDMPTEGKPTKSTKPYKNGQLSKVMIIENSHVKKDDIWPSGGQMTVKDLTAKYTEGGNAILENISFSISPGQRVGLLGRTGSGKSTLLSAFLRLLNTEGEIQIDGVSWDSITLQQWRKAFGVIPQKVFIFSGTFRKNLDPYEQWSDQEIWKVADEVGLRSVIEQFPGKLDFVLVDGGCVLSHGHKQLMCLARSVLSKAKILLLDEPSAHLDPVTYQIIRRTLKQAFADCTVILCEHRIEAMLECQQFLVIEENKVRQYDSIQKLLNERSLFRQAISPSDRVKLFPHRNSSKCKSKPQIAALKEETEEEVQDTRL

Row | TECC AUC vs. DMSO @ 3 uM | Compound
1 | B (“B” refers to AUC 2-5) | Cc1nn(C)cc1S(=O)(=O)Nc1nc(-c2ccccc2C(F)(F)F)c(-c2cccc([C@H]3CC[C@@H](OC(F)(F)F)C3)c2)s1 (single isomer, unassigned) [Example 45A1]
2 | B (“B” refers to AUC 2-5) | Cc1nn(C)cc1S(=O)(=O)Nc1nc(-c2ccccc2C(F)(F)F)c(-c2cccc([C@H]3CC[C@H](OC(F)(F)F)C3)c2)s1 (single isomer, unassigned) [Example 45A2]
3 | A (“A” refers to AUC > 5) | Cc1nn(C)cc1S(=O)(=O)Nc1nc(-c2ccccc2C(F)(F)F)c(-c2cccc([C@@H]3CC[C@H](OC(F)(F)F)C3)c2)s1 (single isomer, unassigned) [Example 45B1]
4 | C (“C” refers to AUC < 2) | Cc1nn(C)cc1S(=O)(=O)Nc1nc(-c2ccccc2C(F)(F)F)c(-c2cccc([C@@H]3CC[C@@H](OC(F)(F)F)C3)c2)s1 (single isomer, unassigned) [Example 45B2]
5 | C (“C” refers to AUC < 2) | Nc1cccc(S(=O)(=O)Nc2nc(-c3ccccc3C(F)(F)F)c(-c3cccc([C@H]4CC[C@@H](OC(F)(F)F)C4)c3)s2)c1F (single isomer, unassigned) [Example 47A1]
6 | C (“C” refers to AUC < 2) | Nc1cccc(S(=O)(=O)Nc2nc(-c3ccccc3C(F)(F)F)c(-c3cccc([C@H]4CC[C@H](OC(F)(F)F)C4)c3)s2)c1F (single isomer, unassigned) [Example 47A2]

The remaining lines, values behind:

Row | Compound | TECC AUC vs. DMSO @ 3 uM
7 | Nc1cccc(S(=O)(=O)Nc2nc(-c3ccc(C(F)(F)F)cc3)c(-c3cc(F)cc(O[C@H]4CCC(OC(F)(F)F)C4)c3)s2)c1 (single isomer, unassigned) [Example 43A] | B (“B” refers to AUC 2-5)
8 | Nc1cccc(S(=O)(=O)Nc2nc(-c3ccc(C(F)(F)F)cc3)c(-c3cc(F)cc(O[C@@H]4CCC(OC(F)(F)F)C4)c3)s2)c1 (single isomer, unassigned) [Example 43B] | A (“A” refers to AUC > 5)
9 | O=S(=O)(Nc1nc(-c2ccccc2C(F)(F)F)c(-c2cccc([C@H]3CC[C@@H](OC(F)(F)F)C3)c2)s1)c1ccccc1 (single isomer, unassigned) [Example 44A1] | B (“B” refers to AUC 2-5)
10 | O=S(=O)(Nc1nc(-c2ccccc2C(F)(F)F)c(-c2cccc([C@H]3CC[C@H](OC(F)(F)F)C3)c2)s1)c1ccccc1 (single isomer, unassigned) [Example 44A2] | C (“C” refers to AUC < 2)
11 | O=S(=O)(Nc1nc(-c2ccccc2C(F)(F)F)c(-c2cccc([C@@H]3CC[C@@H](OC(F)(F)F)C3)c2)s1)c1ccccc1 (single isomer, unassigned) [Example 44B1] | B (“B” refers to AUC 2-5)
12 | O=S(=O)(Nc1nc(-c2ccccc2C(F)(F)F)c(-c2cccc([C@@H]3CC[C@H](OC(F)(F)F)C3)c2)s1)c1ccccc1 (single isomer, unassigned) [Example 44B2] | C (“C” refers to AUC < 2)
13 | Cc1cccc(C)c1-c1nc(NS(=O)(=O)c2ccccc2)sc1-c1cc(F)cc(OCC(C)(C)C)c1 [Example 1, N-(4-(2,6-Dimethylphenyl)-5-(3-fluoro-5-(neopentyloxy)phenyl)thiazol-2-yl)benzenesulfonamide] | A (“A” refers to AUC > 5)
14 | Cc1cccc(C(F)(F)F)c1-c1nc(NS(=O)(=O)c2ccccc2)sc1-c1cc(F)cc(OCCC(C)(C)C)c1 [Example 2, N-(5-(3-(3,3-Dimethylbutoxy)-5-fluorophenyl)-4-(2-methyl-6-(trifluoromethyl)phenyl)thiazol-2-yl)benzenesulfonamide] | A (“A” refers to AUC > 5)
15 | CC(C)c1ccccc1-c1nc(NS(=O)(=O)c2ccccc2)sc1-c1cc(F)cc(OCCC(C)(C)C)c1 [Example 3, N-(5-(3-(3,3-Dimethylbutoxy)-5-fluorophenyl)-4-(2-isopropylphenyl)thiazol-2-yl)benzenesulfonamide] | A (“A” refers to AUC > 5)
